One data set has as its system E. coli. The data set can be described thus: MIC, agar-dilution technique, standard in vitro test. Format: cell-based. Particulars: Escherichia coli; strain code A8341098; Isosensitest agar; inoculum 10^4 CFU./spot; read-out: minimum inhibitory concentration (MIC). From the text:
(§1) The results set out in the following Table are illustrative of the biological activity of the compounds of the present invention. The listed compounds all carry a 1-methyl-4-pyridinioaminomethyl radical at the 3-position of the cephalosporin nucleus and a variety of known substituents at the 7-position. The following results are those obtained on a standard in vitro test system and using Isosensitest agar medium. The antibacterial activity is described in terms of the minimum inhibitory concentration (MIC) determined by agar-dilution technique with an inoculum size of 10^4 CFU./spot.

The subject of the next data set is Ent. cloacae. The description is as above. Format: cell-based. Particulars: Enterobacter cloacae; strain code A8401054; Isosensitest agar; inoculum 10^4 CFU./spot; read-out: minimum inhibitory concentration (MIC).
Source text: as §1

For a further data set, the system named is Kleb. aerogenes. Described as above. It is filed as cell-based. Particulars: Klebsiella aerogenes; strain code A8391027; Isosensitest agar; inoculum 10^4 CFU./spot; read-out: minimum inhibitory concentration (MIC).
Source text: as §1

The test system of another data set is P. aeruginosa. The data set is described as above. Format: cell-based. Particulars: Pseudomonas aeruginosa; strain code A8101028; Isosensitest agar; inoculum 10^4 CFU./spot; read-out: minimum inhibitory concentration (MIC).
Source text: as §1

A further data set deals with Prot. mirabilis. The data set is described as above. Format: cell-based. The note with it: Proteus mirabilis; strain code A8432057; Isosensitest agar; inoculum 10^4 CFU./spot; read-out: minimum inhibitory concentration (MIC).
Source text: as §1

The subject of another data set is Sal. dublin. The data set is described as above. It is filed as cell-based. Particulars: Salmonella enterica; strain code A8369001; Isosensitest agar; inoculum 10^4 CFU./spot; read-out: minimum inhibitory concentration (MIC).
Source text: as §1

The next data set relates to Serr. marcescens. Described as above. It is filed as cell-based. The note with it: Serratia marcescens; strain code A8421020; Isosensitest agar; inoculum 10^4 CFU./spot; read-out: minimum inhibitory concentration (MIC).
Source text: as §1

Another data set has as its system Staph. aureus. The data set is described as above. Format: cell-based. Particulars: Staphylococcus aureus; strain code A8601052; Isosensitest agar; inoculum 10^4 CFU./spot; read-out: minimum inhibitory concentration (MIC).
Source text: as §1

The next data set deals with Strep. pyogenes. Described as above. It is filed as cell-based. Particulars: Streptococcus pyogenes; strain code A8681018; Isosensitest agar; inoculum 10^4 CFU./spot; read-out: minimum inhibitory concentration (MIC).
Source text: as §1

Data set [1] is described as follows: Toxicity observation in mice after subcutaneous administration. It is filed as in vivo. The note with it: two single doses over one day, each at least five times the PD50 against Salmonella dublin. As for the experimental part:
A number of compounds were administered to mice at doses in excess of those required to afford protection against bacterial infections. Thus for example the compounds of Examples 23, 70 and 74 were administered subcutaneously to mice in two single doses over one day, each dose being at least five times the minimum effective dose which protected 50% of the mice against infection with Salmonella dublin (PD50).

Each structure is given as a SMILES string. In brackets after ≈: the same amount, converted by molar mass.

Consider `C[n+]1ccc(NCC2=C(C(=O)[O-])N3C(=O)[C@@H](NC(=O)/C(=N\OC4(C(=O)O)CCC4)c4csc(N)n4)[C@H]3SC2)cc1` [Example 74], for which the MIC in the data set on E. coli is 0.25 µg/mL (≈ 0.425 µM); in the data set with Ent. cloacae, 1 µg/mL (≈ 1.7 µM); in the data set on Kleb. aerogenes, 0.5 µg/mL (≈ 0.851 µM); in the data set with P. aeruginosa it was 4 µg/mL (≈ 6.81 µM); in the data set on Prot. mirabilis, 0.13 µg/mL (≈ 0.221 µM); in the data set with Sal. dublin it was 0.13 µg/mL (≈ 0.221 µM). In addition, the MIC with Serr. marcescens turned out to be 1 µg/mL (≈ 1.7 µM); in the data set with Staph. aureus it was 8 µg/mL (≈ 13.6 µM); in the data set with Strep. pyogenes, 0.25 µg/mL (≈ 0.425 µM). Also, the “overt toxic symptoms or side effects” value in data set [1] was “No overt toxic symptoms or side effects attributable to the administered compounds were noted”.

On to `CO/N=C(\C(=O)N[C@@H]1C(=O)N2C(C(=O)O)=C(CNc3cc[n+](C)cc3)CS[C@H]12)c1csc(N)n1` [Example 9], for which the MIC in the data set with E. coli is 0.032 µg/mL; in the data set on Ent. cloacae, 0.064 µg/mL; in the data set on Kleb. aerogenes, 0.032 µg/mL; in the data set with P. aeruginosa, 16 µg/mL; in the data set on Prot. mirabilis, 0.064 µg/mL; in the data set with Sal. dublin, 0.25 µg/mL. The results for the MIC in the data set with Serr. marcescens, in the data set with Staph. aureus and with Strep. pyogenes were 0.13 µg/mL, 1 µg/mL and 0.016 µg/mL, respectively.

As for `C[n+]1ccc(NCC2=C(C(=O)[O-])N3C(=O)[C@@H](NC(=O)/C(=N\OCC#N)c4csc(N)n4)[C@H]3SC2)cc1` [Example 96], the MIC in the data set on E. coli was 0.032 µg/mL (≈ 0.0605 µM); with Ent. cloacae it was 0.25 µg/mL (≈ 0.473 µM); in the data set with Kleb. aerogenes, less than 0.016 µg/mL; in the data set on P. aeruginosa, 32 µg/mL (≈ 60.5 µM); with Prot. mirabilis, 0.064 µg/mL (≈ 0.121 µM); in the data set with Sal. dublin, 0.064 µg/mL (≈ 0.121 µM). Moreover, the values for the MIC in the data set on Serr. marcescens and in the data set on Staph. aureus were 0.032 µg/mL (≈ 0.0605 µM) and 0.5 µg/mL (≈ 0.946 µM), respectively.

As to `C[n+]1ccc(NCC2=C(C(=O)[O-])N3C(=O)[C@@H](NC(=O)[C@H](NC(=O)c4n[nH]c(=O)nc4O)c4ccc(O)cc4)[C@H]3SC2)cc1` [Example 82], the MIC in the data set with E. coli is 128 µg/mL (≈ 210 µM); with Ent. cloacae it was more than 128 µg/mL; in the data set on Kleb. aerogenes, 64 µg/mL (≈ 105 µM); in the data set with P. aeruginosa, more than 12 µg/mL; in the data set with Prot. mirabilis, 32 µg/mL (≈ 52.6 µM); in the data set with Sal. dublin it was 64 µg/mL (≈ 105 µM). Also, the MIC was more than 128 µg/mL in the data set on Serr. marcescens, 2 µg/mL (≈ 3.29 µM) in the data set with Staph. aureus and 0.5 µg/mL (≈ 0.822 µM) in the data set on Strep. pyogenes.

Consider `C[n+]1ccc(NCC2=C(C(=O)[O-])N3C(=O)[C@@H](NC(=O)/C(=N\OC(C)(C)C(=O)O)c4csc(N)n4)[C@H]3SC2)cc1` [Example 23], for which the MIC came out at 0.13 µg/mL (≈ 0.226 µM) in the data set with E. coli; 0.5 µg/mL (≈ 0.869 µM) in the data set with Ent. cloacae; 0.13 µg/mL (≈ 0.226 µM) with Kleb. aerogenes; 2 µg/mL (≈ 3.47 µM) in the data set with P. aeruginosa; 0.064 µg/mL (≈ 0.111 µM) in the data set on Prot. mirabilis; 0.25 µg/mL (≈ 0.434 µM) with Sal. dublin. Besides, the MIC in the data set with Serr. marcescens is 0.25 µg/mL (≈ 0.434 µM); with Staph. aureus, 8 µg/mL (≈ 13.9 µM); with Strep. pyogenes, 0.13 µg/mL (≈ 0.226 µM). For the same molecule, the “overt toxic symptoms or side effects” value in data set [1] is “No overt toxic symptoms or side effects attributable to the administered compounds were noted”.

As to `CCN1CCN(C(=O)N[C@@H](C(=O)N[C@@H]2C(=O)N3C(C(=O)[O-])=C(CNc4cc[n+](C)cc4)CS[C@H]23)c2ccc(O)cc2)C(=O)C1=O` [Example 81], the MIC in the data set with E. coli is 2 µg/mL (≈ 3.14 µM); in the data set on Ent. cloacae, 4 µg/mL (≈ 6.27 µM); in the data set on Kleb. aerogenes, 2 µg/mL (≈ 3.14 µM); with P. aeruginosa, more than 128 µg/mL; in the data set on Prot. mirabilis it was 32 µg/mL (≈ 50.2 µM); in the data set with Sal. dublin, 8 µg/mL (≈ 12.5 µM). Also, the MIC in the data set with Serr. marcescens came to 8 µg/mL (≈ 12.5 µM); with Staph. aureus, 1 µg/mL (≈ 1.57 µM); in the data set on Strep. pyogenes it was 0.13 µg/mL (≈ 0.204 µM).

Consider `C=CCO/N=C(\C(=O)N[C@@H]1C(=O)N2C(C(=O)[O-])=C(CNc3cc[n+](C)cc3)CS[C@H]12)c1csc(N)n1` [Example 70], for which the MIC in the data set with E. coli is 0.25 µg/mL (≈ 0.472 µM); in the data set on Ent. cloacae, 1 µg/mL (≈ 1.89 µM); in the data set with Kleb. aerogenes, 0.13 µg/mL (≈ 0.245 µM); with P. aeruginosa, 32 µg/mL (≈ 60.4 µM); in the data set with Prot. mirabilis it was 0.5 µg/mL (≈ 0.944 µM); with Sal. dublin, 0.5 µg/mL (≈ 0.944 µM). In addition, the MIC with Serr. marcescens was 0.5 µg/mL (≈ 0.944 µM); with Staph. aureus, 1 µg/mL (≈ 1.89 µM); in the data set with Strep. pyogenes, less than 0.016 µg/mL. Besides, in data set [1], the “overt toxic symptoms or side effects” value is recorded as “No overt toxic symptoms or side effects attributable to the administered compounds were noted”.

The values are drawn from patent publication US4678781A, “3-substituted-aminomethyl cephalosporin derivatives” (ICI Pharma, priority 1983, dated 1987).
